Patent US20210403567A1, “METHODS OF TREATING CERVICAL CANCER BY ADMINISTERING A PD-1 INHIBITOR” (priority 2020, published 2021)
Several values for one entry are separate records, joined by “and”; a condition that tells them apart may be missing. Equal values may be shown once.

Test system: recurrent or metastatic cervical cancer that has progressed after platinum-containing chemotherapy
Experiment: Phase 3 trial, cemiplimab 350 mg IV Q3W versus investigator's choice (IC) chemotherapy: OS, PFS, ORR, DOR;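 also: randomized trial arms, OS counted from randomization until death with censoring at last contact, PFS until first RECIST 1.1 progression or death from any cause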
Conditions: for PFS: Number of censored patients / PFS: Number of deaths / PFS: Progressive Disease / reduction in the risk of disease progression / Median PFS (95% CI) / PFS: Number of events / PFS HR (95% CI): Example 4 updated; for reduction in the risk of disease progression: vs chemotherapy; for Median PFS (95% CI) / Median OS (95% CI) / Median DOR, months (95% CI): Kaplan-Meier; for PFS HR (95% CI) / OS subgroup analysis, Hazard Ratio (95% CI) / OS Hazard Ratio (95% CI): cemiplimab vs chemotherapy
[1] = overall population, listed as cemiplimab
[2] = overall population, N=304 per arm

With cemiplimab the “PFS Hazard Ratio (95% CI)” value (Example 3 analysis, total population, cemiplimab vs chemo) was 0.719 (0.599, 0.862), the “PFS: Number of censored patients” value (AC) was 9 (13.8%) n (%) and the “PFS: Number of deaths” value (AC) was 7 (10.8%) n (%). For the same substance, the “PFS: Progressive Disease” value (AC) was 49 (75.4%) n (%), the “reduction in the risk of disease progression” value (“reduction in the risk” for short) (AC, post-hoc) was 9% and the “Median PFS (95% CI)” value (AC) was 2.7 (2.3, 4.0) months. For the same substance, the “Median PFS (95% CI)” value (AC, listed as cemiplimab) was 2.7 months, the “PFS: Number of events” value (AC, cemiplimab N=65, chemo N=66) was 56 (86.2%) n (%) and the “PFS HR (95% CI)” value (AC) was 0.912 (0.623, 1.335). The “PFS HR (95% CI)” value (AC, listed as cemiplimab) was 0.91, the “PFS: Number of censored patients” value (SCC) was 42 (17.6%) n (%) and the “PFS: Number of deaths” value (SCC) was 34 (14.2%) n (%). The “PFS: Progressive Disease” value (SCC) was 163 (68.2%) n (%), the “Median PFS (95% CI)” value (SCC) was 2.8 (2.6, 4.0) months and the “Median PFS (95% CI)” value (SCC, listed as cemiplimab) was 2.8 months. The “PFS HR (95% CI)” value (SCC) was 0.705 (0.578, 0.861), the “PFS HR (95% CI)” value (SCC, listed as cemiplimab) was 0.71 and the “reduction in the risk” value (SCC) was 29%. The “PFS: Number of censored patients” value (overall population) was 51(16.8%) n (%), the “PFS: Number of deaths” value (overall population) was 41(13.5%) n (%) and the “PFS: Progressive Disease” value (overall population) was 212 (69.7%) n (%). The “Median PFS (95% CI)” value (overall population) was 2.8 (2.6, 3.9) months, the “Median PFS (95% CI)” value [1] was 2.8 months and the “PFS: Number of events” value [2] was 253 (83.2%) n (%). For the same substance, the “PFS HR (95% CI)” value (overall population) was 0.745 (0.625, 0.890), the “PFS HR (95% CI)” value [1] was 0.75 and the “reduction in the risk” value (overall population) was 25%. The “OS subgroup analysis, Hazard Ratio (95% CI)” value (Geographic region: Asia) was 0.65 (0.44-0.96), the “OS subgroup analysis, Hazard Ratio (95% CI)” value (Geographic region: North America) was 0.52 (0.27-1.00) and the “OS subgroup analysis, Hazard Ratio (95% CI)” value (Geographic region: Rest of World) was 0.73 (0.57-0.94). The “OS subgroup analysis, Hazard Ratio (95% CI)” value (Prior bevacizumab use: No) was 0.76 (0.58-1.00), the “OS subgroup analysis, Hazard Ratio (95% CI)” value (Prior bevacizumab use: Yes) was 0.64 (0.48-0.86) and the “Reduced risk of death (vs. chemotherapy)” value (SCC) was 27%. The “Estimated Event-Free Probability (PFS), % (95% CI)” value (SCC, 6 months) was 34.5 (28.5, 40.5) %, the “Estimated Survival Probability, % (95% CI)” value (SCC, 6 months) was 69.6 (63.3, 75.0) % and the “Estimated Event-Free Probability (PFS), % (95% CI)” value (SCC, 12 months) was 21.0 (15.8, 26.6) %. For the same substance, the “Estimated Survival Probability, % (95% CI)” value (SCC, 12 months) was 48.2 (41.3, 54.7) %, the “Estimated Event-Free Probability (PFS), % (95% CI)” value (SCC, 18 months) was 14.5 (9.7, 20.1) % and the “Estimated Survival Probability, % (95% CI)” value (SCC, 18 months) was 33.4 (26.3, 40.6) %. For the same substance, the “Estimated Event-Free Probability (PFS), % (95% CI)” value (SCC, 24 months) was 10.3 (5.9, 16.0) %, the “Estimated Survival Probability, % (95% CI)” value (SCC, 24 months) was 25.3 (17.8, 33.5) % and the “Estimated Event-Free Probability (PFS), % (95% CI)” value (SCC, 30 months) was 7.7 (3.2, 14.8) %. The “Estimated Survival Probability, % (95% CI)” value (SCC, 30 months) was 25.3 (17.8, 33.5) %, the “Median OS (95% CI)” value (SCC) was 11.1 (9.2, 13.4) months and the “Median OS (95% CI)” value (SCC, listed as cemiplimab) was 11.1 months. The “OS Hazard Ratio (95% CI)” value (SCC, stratified proportional hazards model) was 0.727 (0.579, 0.914) and 0.73 (0.58-0.91), the “OS Hazard Ratio (95% CI)” value (SCC, stratified proportional hazards model, listed as cemiplimab) was 0.73 and the ORR (SCC, listed as cemiplimab) was 17.6% and 18%. For the same substance, the “Reduced risk of death (vs. chemotherapy)” value (SCC, listed as cemiplimab) was 27%, the “OS: Number of deaths” value (adenocarcinoma/adenosquamous (AC), cemiplimab N=65, chemo N=66) was 41 (63.1%) n (%) and the “Median observed time to response, months (range)” value (overall population) was 2.7 (1.2-11.4) months. The “Reduced risk of death (vs. chemotherapy)” value (overall population) was 31%, the “Estimated Event-Free Probability (PFS), % (95% CI)” value (overall population, 6 months) was 33.5 (28.2, 38.9) % and the “Estimated Survival Probability, % (95% CI)” value (overall population, 6 months) was 69.6 (64.0, 74.5) %. For the same substance, the “Estimated Event-Free Probability (PFS), % (95% CI)” value (overall population, 12 months) was 18.8 (14.4, 23.6) %, the “Estimated Survival Probability, % (95% CI)” value (overall population, 12 months) was 50.2 (44.1, 56.0) % and the “Estimated Event-Free Probability (PFS), % (95% CI)” value (overall population, 18 months) was 13.0 (9.0, 17.8) %. The “Estimated Survival Probability, % (95% CI)” value (overall population, 18 months) was 33.4 (27.2, 39.7) %, the “Estimated Event-Free Probability (PFS), % (95% CI)” value (overall population, 24 months) was 9.7 (6.0, 14.6) % and the “Estimated Survival Probability, % (95% CI)” value (overall population, 24 months) was 23.6 (17.1, 30.6) %. For the same substance, the “Estimated Event-Free Probability (PFS), % (95% CI)” value (overall population, 30 months) was 7.8 (3.8, 13.6) %, the “Estimated Survival Probability, % (95% CI)” value (overall population, 30 months) was 23.6 (17.1, 30.6) % and the “Median DOR, months (95% CI)” value (overall population) was 16.4 (12.4, NE) months. The “Median OS (95% CI)” value (overall population) was 12.0 (10.3, 13.5) months, the “Median DOR, months (95% CI)” value [1] was 16 months and the “Median OS (95% CI)” value [1] was 12 months and 12.0 months. For the same substance, the “Best Overall Tumor Response: Complete Response (CR)” value [2] was 10 (3.3) n (%), the “Best Overall Tumor Response: Not Evaluable (NE)” value [2] was 24 (7.9) n (%) and the “Best Overall Tumor Response: Partial Response (PR)” value [2] was 40 (13.2) n (%). The “Best Overall Tumor Response: Progressive Disease (PD)” value [2] was 105 (34.5) n (%), the “OS: Number of censored patients” value [2] was 120 (39.5%) n (%) and the “OS: Number of deaths” value [2] was 184 (60.5%) n (%). For the same substance, the “Objective Response Rate (ORR: CR + PR)” value [2] was 50 (16.4%) n (%), the “OS Hazard Ratio (95% CI)” value (overall population) was 0.685 (0.560, 0.838) and the “OS Hazard Ratio (95% CI)” value [1] was 0.69. For the same substance, the ORR [1] was 16.4% and 16%, the “Reduced risk of death (vs. chemotherapy)” value [1] was 31% and the “OS subgroup analysis, Hazard Ratio (95% CI)” value (prior lines: 1 line) was 0.74 (0.58-0.94). The “OS subgroup analysis, Hazard Ratio (95% CI)” value (prior lines: >1 line) was 0.72 (0.54-0.95).
